Laboratory results reported in patent US20130123215A1, “2,5-DIOXOIMIDAZOLIDIN-1-YL-3-PHENYLUREA DERIVATIVES AS FORMYL PEPTIDE RECEPTOR LIKE-1 (FPRL-1) RECEPTOR MODULATORS” (ALLERGAN, INC., priority 2011, published 2013).

target: T1, FPRL-1 (Homo sapiens, UniProt P25090); assay: FPRL-1 Ga16-CHO compound-induced calcium activity (FLIPR Tetra); format: cell-based; conditions: CHO-Gα16 cells stably expressing FPRL1; calcium activity on FLIPR Tetra; tested at 0.61 to 10,000 nM; read-out: FPRL-1 Ga16-CHO EC50
T1 construct: expressed in transfected cells; host or cells: CHO-Gα16 cells stably expressing FPRL1
T1 sequence (P25090 1-351): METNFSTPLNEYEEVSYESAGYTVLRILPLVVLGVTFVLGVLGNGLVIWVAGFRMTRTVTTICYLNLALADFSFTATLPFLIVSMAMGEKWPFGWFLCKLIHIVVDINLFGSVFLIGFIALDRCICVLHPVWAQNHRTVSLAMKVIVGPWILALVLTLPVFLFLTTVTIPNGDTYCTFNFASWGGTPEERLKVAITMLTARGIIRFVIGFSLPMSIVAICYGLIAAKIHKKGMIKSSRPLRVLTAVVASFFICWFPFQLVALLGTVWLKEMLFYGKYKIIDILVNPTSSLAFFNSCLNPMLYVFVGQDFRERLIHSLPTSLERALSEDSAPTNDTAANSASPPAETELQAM
Procedure: HEK-Gα16 and CHO-Gα16 cells stably expressing FPRL1 were cultured in (F12, 10% FBS, 1% PSA, 400 μg/ml geneticin and 50 μg/ml hygromycin) and HEK-Gqi5 cells stable expressing FPR1 were cultured in (DMEM high glucose, 10% FBS, 1% PSA, 400 μg/ml geneticin and 50 μg/ml hygromycin). In general, the day before the experiment, 18,000 cells/well were plated in a 384-well clear bottom poly-d-lysine coated plate. The following day the screening compound-induced calcium activity was assayed on the FLIPR^Tetra. The drug plates were prepared in 384-well microplates using the EP3 and the MultiPROBE robotic liquid handling systems. Compounds were tested at concentrations ranging from 0.61 to 10,000 nM. Results are expressed as EC50 (nM) and efficacy values.

SMILES	EC50 [nM]
O=C(Nc1ccc(Br)cc1)NN1C(=O)NC2(Cc3ccccc3C2)C1=O [Compound 13, 1-(4-Bromophenyl)-3-(2,5-dioxo-1′,3′-dihydrospiro[imidazolidine-4,2′-inden]-1-yl)urea]	47
CCC1(CC)NC(=O)N(NC(=O)Nc2ccc(Cl)c(F)c2)C1=O [Compound 19, 1-(4-Chloro-3-fluorophenyl)-3-(4,4-diethyl-2,5-dioxoimidazolidin-1-yl)urea]	149
CC1(CCc2ccccc2O)NC(=O)N(NC(=O)Nc2ccc(Br)cc2F)C1=O (centres unmarked) [Compound 51, 1-(4-Bromo-2-fluorophenyl)-3-(4-(2-hydroxyphenethyl)-4-methyl-2,5-dioxoimidazolidin-1-yl)urea]	5.8
CC(C)C1(CCO)NC(=O)N(NC(=O)Nc2ccc(Br)cc2)C1=O (centres unmarked) [Compound 75, 1-(4-Bromophenyl)-3-(4-(2-hydroxyethyl)-4-isopropyl-2,5-dioxoimidazolidin-1-yl)urea]	21.2
CCC1(CCc2ccccc2)NC(=O)N(NC(=O)Nc2ccc(Br)cc2)C1=O (centres unmarked) [Compound 30, 1-(4-Bromophenyl)-3-(4-ethyl-2,5-dioxo-4-(phenethyl)imidazolidin-1-yl)urea]	0.5
CCC1(CC)NC(=O)N(NC(=O)Nc2ccc(C)cc2)C1=O [Compound 7, 1-(4-Methylphenyl)-3-(4,4-diethyl-2,5-dioxoimidazolidin-1-yl)urea]	96
CC1(Cc2c[nH]c3ccccc23)NC(=O)N(NC(=O)Nc2ccc(Br)cc2)C1=O (centres unmarked) [Compound 64, 1-(4-Bromophenyl)-3-[4-(1H-indol-3-ylmethyl)-4-methyl-2,5-dioxoimidazolidin-1-yl]urea]	114
CCC1(CC)NC(=O)N(NC(=O)Nc2ccc(Cl)cc2)C1=O [Compound 2, 1-(4-Chlorophenyl)-3-(4,4-diethyl-2,5-dioxoimidazolidin-1-yl)urea]	27
CC1(CCc2ccc(Cl)cc2)NC(=O)N(NC(=O)Nc2ccc(Br)cc2F)C1=O (centres unmarked) [Compound 34]	1380
O=C(Nc1ccc(Br)cc1)NN1C(=O)NC2(CCc3ccccc3C2)C1=O (centres unmarked) [Compound 27, 1-(4-Bromophenyl)-3-(2,5-dioxo-3′,4′-dihydro-1H,1′H-spiro[imidazolidine-4,2′-naphthalen]-1-yl)urea]	53.5
CC1(COc2ccccc2)NC(=O)N(NC(=O)Nc2ccc(Br)cc2)C1=O (centres unmarked) [Compound 25, 1-(4-Bromophenyl)-3-(4-methyl-2,5-dioxo-4-(phenoxymethyl)imidazolidin-1-yl)urea]	22.1
CC1(CCc2ccncc2)NC(=O)N(NC(=O)Nc2ccc(Br)cc2F)C1=O (centres unmarked) [Compound 55]	28.6
CC(C)C1(CC(=O)NCCC(=O)O)NC(=O)N(NC(=O)Nc2ccc(Br)cc2)C1=O (centres unmarked) [Compound 93, 3-(2-(1-(3-(4-Bromophenyl)ureido)-4-isopropyl-2,5-dioxoimidazolidin-4-yl)acetamido)propanoic acid]	5.16
CC1(CCc2ccncc2)NC(=O)N(NC(=O)Nc2ccc(Br)cc2)C1=O (centres unmarked) [Compound 54, 1-(4-Bromophenyl)-3-(4-methyl-2,5-dioxo-4-(2-(pyridin-4-yl)ethyl)imidazolidin-1-yl)urea]	30.2
CCC1(CC)NC(=O)N(NC(=O)Nc2ccc(Cl)cc2F)C1=O [Compound 16, 1-(4-Chloro-2-fluorophenyl)-3-(4,4-diethyl-2,5-dioxoimidazolidin-1-yl)urea]	39
CCc1ccc2[nH]c(C3(C)NC(=O)N(c4ccc(Br)cc4)C3=O)cc2c1 (centres unmarked) [3-(4-Bromophenyl)-5-(5-ethyl-1H-indol-2-yl)-5-methylimidazolidine-2,4-dione]	2590

The remaining lines, values ahead:

EC50 [nM]	SMILES
713	CC(C)C1(CC(=O)O)NC(=O)N(NC(=O)Nc2ccc(Br)cc2F)C1=O (centres unmarked) [Compound 82, 2-(1-(3-(4-Bromo-2-fluorophenyl)ureido)-4-isopropyl-2,5-dioxoimidazolidin-4-yl)acetic acid]
232	COc1ccc(COCCC2(C(C)C)NC(=O)N(NC(=O)Nc3ccc(Br)cc3)C2=O)cc1 (centres unmarked) [Compound 49, 1-(4-Bromophenyl)-3-(4-isopropyl-4-(2-((4-methoxybenzyl)oxy)ethyl)-2,5-dioxoimidazolidin-1-yl)urea]
210	CC1(CCc2ccc(C(=O)O)cc2)NC(=O)N(NC(=O)Nc2ccc(Br)cc2)C1=O (centres unmarked) [Compound 77, 4-(2-(1-(3-(4-Bromophenyl)ureido)-4-methyl-2,5-dioxoimidazolidin-4-yl)ethyl)benzoic acid]
204	COC(=O)c1ccc(CCC2(C)NC(=O)N(NC(=O)Nc3ccc(Br)cc3)C2=O)cc1 (centres unmarked) [Compound 58, Methyl 4-(2-(1-(3-(4-Bromophenyl)ureido)-4-methyl-2,5-dioxoimidazolidin-4-yl)ethyl)benzoate]
193	CC(C)OP(=O)(CNC(=O)CC1(C(C)C)NC(=O)N(NC(=O)Nc2ccc(Br)cc2)C1=O)OC(C)C (centres unmarked) [Compound 88, Diisopropyl((2-(1-(3-(4-bromophenyl)ureido)-4-isopropyl-2,5-dioxoimidazolidin-4-yl)acetamido)methyl)phosphonate]
191	O=C(Nc1ccc(Br)cc1F)NN1C(=O)NC2(CCc3ccccc3C2)C1=O (centres unmarked) [Compound 26]
133	CC(C)C1(CC(=O)NCC(=O)O)NC(=O)N(NC(=O)Nc2ccc(Br)cc2)C1=O (centres unmarked) [Compound 92, 2-(2-(1-(3-(4-Bromophenyl)ureido)-4-isopropyl-2,5-dioxoimidazolidin-4-yl)acetamido)acetic acid]
118	CC1(CCc2ccc(F)cc2)NC(=O)N(NC(=O)Nc2ccc(Br)cc2F)C1=O (centres unmarked) [Compound 40, 1-(4-Bromo-2-fluorophenyl)-3-(4-(4-fluorophenethyl)-4-methyl-2,5-dioxoimidazolidin-1-yl)urea]
109	CC(C)C1(CC(=O)NC(C)(C)C(=O)O)NC(=O)N(NC(=O)Nc2ccc(Br)cc2)C1=O (centres unmarked) [Compound 95, 2-(2-(1-(3-(4-Bromophenyl)ureido)-4-isopropyl-2,5-dioxoimidazolidin-4-yl)acetamido)-2-methylpropanoic acid]
86.4	CC(C)CC1(CCc2ccccc2)NC(=O)N(NC(=O)Nc2ccc(Br)cc2)C1=O (centres unmarked) [Compound 31]
74.9	CC1(C)NC(=O)N(NC(=O)Nc2ccc(Br)cc2)C1=O [Compound 12, 1-(4-Bromophenyl)-3-(4,4-dimethyl-2,5-dioxoimidazolidin-1-yl)urea]
51.3	CC(C)C1(CC(=O)NCC(N)=O)NC(=O)N(NC(=O)Nc2ccc(Br)cc2)C1=O (centres unmarked) [Compound 96, N-(2-Amino-2-oxoethyl)-2-(1-(3-(4-bromophenyl)ureido)-4-isopropyl-2,5-dioxoimidazolidin-4-yl)acetamide]
50	CC(C)C1(CO)NC(=O)N(NC(=O)Nc2ccc(Br)cc2F)C1=O (centres unmarked) [Compound 76, 1-(4-Bromo-2-fluorophenyl)-3-(4-(2-hydroxymethyl)-4-isopropyl-2,5-dioxoimidazolidin-1-yl)urea]
23.9	O=C(Nc1ccc(Br)cc1F)NN1C(=O)NC2(CCCC2)C1=O [Compound 11, 1-(4-Bromo-2-fluorophenyl)-3-(2,4-dioxo-1,3-diazaspiro[4.4]nonan-3-yl)urea]
16.2	CC(C)C1(CC(=O)NCCO)NC(=O)N(NC(=O)Nc2ccc(Br)cc2)C1=O (centres unmarked) [Compound 84, 2-(1-(3-(4-Bromophenyl)ureido)-4-isopropyl-2,5-dioxoimidazolidin-4-yl)-N-(2-hydroxyethyl)acetamide]
14.3	O=C(Nc1ccc(Br)cc1)NN1C(=O)NC(C2CC2)(C2CC2)C1=O [Compound 66, 1-(4-Bromophenyl)-3-(4,4-dicyclopropyl-2,5-dioxoimidazolidin-1-yl)urea]
13.6	O=C(Nc1ccc(Br)cc1)NN1C(=O)NC2(CCCCC2)C1=O [Compound 14, 1-(4-Bromophenyl)-3-(2,4-dioxo-1,3-diazaspiro[4.5]decan-3-yl)urea]
11.1	CC1(CCc2cccc(F)c2)NC(=O)N(NC(=O)Nc2ccc(Br)cc2)C1=O (centres unmarked) [Compound 41, 1-(4-Bromophenyl)-3-(4-(3-fluorophenethyl)-4-methyl-2,5-dioxoimidazolidin-1-yl)urea]
6.9	CC1(CCc2ccco2)NC(=O)N(NC(=O)Nc2ccc(Br)cc2)C1=O (centres unmarked) [Compound 35]
3.5	Cc1ccc(CCC2(C)NC(=O)N(NC(=O)Nc3ccc(Br)cc3)C2=O)o1 (centres unmarked) [Compound 46, 1-(4-Bromophenyl)-3-(4-methyl-4-(2-(5-methylfuran-2-yl)ethyl)2,5-dioxoimidazolidin-1-yl)urea]
0.97	CC1(CCc2ccccc2O)NC(=O)N(NC(=O)Nc2ccc(Br)cc2)C1=O (centres unmarked) [Compound 50, 1-(4-Bromophenyl)-3-(4-(2-hydroxyphenethyl)-4-methyl-2,5-dioxoimidazolidin-1-yl)urea]

same assay, conditions: FPRL-1 Ga16-CHO EC50, CHO-Gα16 cells stably expressing FPRL1; calcium activity on FLIPR Tetra; tested at 0.61 to 10,000 nM

SMILES	EC50 [nM]
CCC1(CCc2ccccc2C(=O)OC)NC(=O)N(NC(=O)Nc2ccc(Br)cc2)C1=O (centres unmarked) [Compound 60, Methyl 2-(2-(1-(3-(4-bromophenyl)ureido)-4-ethyl-2,5-dioxoimidazolidin-4-yl)ethyl)benzoate]	10.3
